Reference: patent publication US5585492A, “LTA4 Hydrolase inhibitors” (priority 1994, dated 1996)
Like-named read-outs stand apart in the source and are kept apart here.

Assays:
[1] = target: T1, recombinant human LTA4 hydrolase (Homo sapiens, UniProt P09960); assay: Recombinant Human LTA4 Hydrolase Assay for LTA4 Hydrolase Inhibitor Activity (LTB4 by enzyme-linked immunoassay); assay type: biochemical; conditions: read-out: Recombinant Human LTA4 Hydrolase Assay IC50 LTA4H
T1 construct: made in house; host or cells: Spodoptera frugiperda Sf-9 cells, baculovirus (AcNPV) expression vector
T1 sequence (P09960 1-611): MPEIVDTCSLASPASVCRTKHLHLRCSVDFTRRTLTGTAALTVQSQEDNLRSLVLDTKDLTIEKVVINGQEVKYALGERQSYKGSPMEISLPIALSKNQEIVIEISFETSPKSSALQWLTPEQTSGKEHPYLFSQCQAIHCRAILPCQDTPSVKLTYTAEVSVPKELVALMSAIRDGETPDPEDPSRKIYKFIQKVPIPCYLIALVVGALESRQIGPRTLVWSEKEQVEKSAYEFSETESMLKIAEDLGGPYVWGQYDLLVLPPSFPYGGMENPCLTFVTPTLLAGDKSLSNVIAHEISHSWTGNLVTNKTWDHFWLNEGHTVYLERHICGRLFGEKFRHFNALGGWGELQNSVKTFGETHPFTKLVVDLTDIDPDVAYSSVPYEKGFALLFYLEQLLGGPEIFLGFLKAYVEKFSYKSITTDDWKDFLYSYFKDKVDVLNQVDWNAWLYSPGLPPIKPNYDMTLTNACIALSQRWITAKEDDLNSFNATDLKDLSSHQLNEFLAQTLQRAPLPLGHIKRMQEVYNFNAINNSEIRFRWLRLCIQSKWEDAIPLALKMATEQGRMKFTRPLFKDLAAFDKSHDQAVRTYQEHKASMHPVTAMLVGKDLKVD
Description: Compounds of the present invention were tested for LTA4 hydrolase inhibitor activity against recombinant human LTA4 hydrolase (rhLTA4 H). […] Briefly, LTA4 hydrolase encoding DNA was amplified by polymerase chain reaction using a pair of oligonucleotide primers based on the nucleotide sequence from the 5'-end, and the complement of the 3'-end, of the coding region of the LTA4 hydrolase gene, the nucleotide sequence of which gene is known. […] A λgtll human placental cDNA library (Clonetech, Palo Alto, Calif.) provided the nucleic acid template.
One or more predetermined amounts of a compound of the invention were incubated in assay buffer (0.1M potassium phosphate, 5 mg/ml fatty acid free BSA, 10% DMSO, pH 7.4) for 10 minutes at room temperature with 250 ng of recombinant hLT4 H to allow binding, if any, between the enzyme and inhibitor. The stock enzyme solution was 1 mg/ml LTA4 hydrolase, 50 mM Tris, pH 8.0, 150 mM NaCl, 2.5 mM beta-mercaptoethanol, 50% glycerol. […] LTA4 (i.e., substrate) was prepared from the methyl ester of LTA4 (Biomol, Inc., Plymouth Meeting, Pa.) by treating the methyl ester with 30 molar equivalents of LiOH at room temperature for 18 hours. The LTA4 substrate in its free acid form was kept frozen at -80° C. until needed. […] Each reaction was carried out at room temperature for 10 minutes. The reaction was stopped by diluting 25 μl of the reaction mixture with 500 μl of the assay buffer without DMSO. LTB4 was quantified in the diluted sample by a commercially available enzyme-linked immunoassay [Caymen Chemical Co., Ann Arbor, Mich.] using the method recommended in the manufacturer's instructions and compared to the amount of LTB4 produced in a negative control (i.e., essentially identical conditions except without addition of an inhibitor compound). The IC50 was routinely calculated from the data produced.

[2] = tested on: LTB4 production in human blood; assay: Inhibition of Calcium Ionophore-Induced LTB4 Production in Human Blood (HWB); assay type: cell-based; conditions: Homo sapiens, read-out: Inhibition of Calcium Ionophore-Induced LTB4 Production in Human Blood IC50 HWB
[3] = tested on: LTB4 production in mouse blood; assay: Murine Ex Vivo LTB4 Inhibition, calcium ionophore stimulated mouse blood after oral gavage; assay type: in vivo
Description: Leukotriene A4 hydrolass inhibitor compounds of the present invention were diluted to a predetermined concentration in phosphate buffered saline containing 2% DMSO and 1% Tween 80. The compounds were administered by oral gavage to adult male outbred mice weighing approximately 20-30 gm at a dose of 10 mg/kg body weight. (Compounds given at a dose of 50 mg/kg body weight are designtated in following Table by the symbol, *.) Sixty (60) minutes after administration of an LTA4 inhibitor compound of the invention, blood was collected (into heparin-containing tubes) from the retroorbital sinus. […] The mixture was incubated for 10 minutes at 37° C. in a humidified incubator. The reaction was terminated by centrifugation (833 g, 10 minutes at 4° C.). Supernatants were analyzed for LTB4 and thromboxane by commercially available enzyme-linked immunoassays [Caymen Chemical Co., Ann Arbor, Mich.] in accordance with the manufacturer's instructions. The percent inhibition was determined by comparison to animals treated identically except that the solution admininstered by oral gavage was devoid of inhibitor compound.

LTA4 hydrolase = conditions: cited from earlier work
[4] = human whole blood, A23187 20 mcg/ml

IC50 [1]	SMILES	Murine Ex Vivo LTB4 Inhibition % I LTB4 at 1 hour after administration of 10 mg/kg ([3]; oral gavage, 10 mg/kg, 1 hour)	IC50 [2, 4]	also measured
520 nM	CC(=O)N1CCN(CCOc2ccc(Cc3ccccc3)cc2)CC1 [Example 277]	42%	546 nM	
240 nM	c1ccc(Cc2ccc(OCCN3CCC(c4nnn[nH]4)CC3)cc2)cc1 [Example 450]	91%		
5070 nM	Nc1ccc2c(c1)ncn2CCOc1ccc(Cc2ccccc2)cc1 [Example 362A]	28%	3350 nM	
73 nM	Cn1c(=O)c2c(ncn2CCOc2ccc(Cc3ccccc3)cc2)n(C)c1=O [Example 353]	0%	260 nM	
11 nM	FC(F)(c1ccccc1)c1ccc(OCCN2CCCC2)cc1 [Example 67]	0%		
87 nM	c1cncc(Cc2ccc(OCCN3CCCC3)cc2)c1 [Example 125]	46%		
30 nM	c1ccc(Oc2ccc(OCCN3CCCC3)cc2)cc1 [Example 44, 1-[2-(4-phenoxyphenoxy)ethyl]pyrrolidine]	25%		
7 nM	c1ccc(Cc2ccc(OCCN3CCCC3)nc2)cc1 [Example 112]			Murine Ex Vivo LTB4 Inhibition % I LTB4 at 1 hour after administration of 50 mg/kg (*) ([3]; in vivo, po): 82%
132 nM	NC(=O)C1CCN(CCOc2ccc(Cc3ccccc3)cc2)CC1 [Example 242]	95%	608 nM	
8 nM	c1ccc(Cc2ccc(OCCn3cnc4ncccc43)cc2)cc1 [Example 338B]		330 nM	Murine Ex Vivo LTB4 Inhibition % I LTB4 at 1 hour after administration of 50 mg/kg (*) ([3]; oral gavage, 50 mg/kg (*), 1 hour): 92%
190 nM	c1nc(Cc2ccc(OCCN3CCCC3)cc2)cs1 [Example 49]	46%		
15 nM	COC(=O)CC1CC2CC1CN2CCOc1ccc(Cc2ccccc2)cc1 (stereo not drawn) [Example 304]			Murine Ex Vivo LTB4 Inhibition % I LTB4 at 1 hour after administration of 10 mg/kg ([3]; in vivo, po): 80%
69 nM	c1csc(Cc2ccc(OCCN3CCCC3)cc2)n1 [Example 121]	48%		
390 nM	COC(=O)CC1CCN(CCOc2ccc(Cc3ccccc3)cc2)C1 (stereo not drawn) [Example 275]	75%	146 nM	
77 nM	c1ncc(Cc2ccc(OCCN3CCCC3)cc2)s1 [Example 122]	57%		

The remaining lines, values behind:

SMILES	IC50 [1]	Murine Ex Vivo LTB4 Inhibition % I LTB4 at 1 hour after administration of 10 mg/kg ([3]; oral gavage, 10 mg/kg, 1 hour)	IC50 [2, 4]	also measured
c1ccc(Cc2ccc(OCCN3CCCC3)cc2)cc1 [Example 45]	26 nM	35%		IC50 [2]: 116 nM
COC(=O)C1CC2CCC(C1)N2CC1Cc2cc(Cc3ccccc3)ccc2O1 (stereo not drawn) [Example 283]		90%		IC50 [2]: 90 nM
COC(=O)C1CC2CCC(C1)N2CCOc1ccc(Cc2ccccc2)cc1 (stereo not drawn) [Example 278]	22 nM	95%		IC50 [2]: 247 nM
CN(CCCOc1ccc(Cc2ccc(F)cc2)cc1)CCC(=O)O [Example 336]	31 nM	99%	187 nM	
Fc1cc(OCCN2CCCC2)ccc1Cc1ccccc1 [Example 116]	53 nM	18%	1090 nM	
c1ccc(Cc2ccc3c(c2)CC(Cn2ccc4ncnc-4c2)O3)cc1 (stereo not drawn) [Example 358C]		13%	590 nM	
Clc1cccc(COc2ccc(OCCN3CCCC3)cc2)c1 [Example 206]		0%	1650 nM	
COC(=O)CCN(C)CCCOc1ccc(Cc2ccccc2)s1 [Example 375]		67%	240 nM	
CCOC(=O)CNCCCCOc1ccc(Cc2ccccc2)cc1 [Example 320]	14 nM	85%	354 nM	
NC(=O)N1CCN(CCOc2ccc(Cc3ccccc3)cc2)CC1 [Example 459]	1110 nM	44%	2400 nM	
CCOC(=O)CNCCCCCOc1ccc(Cc2ccccc2)cc1 [Example 321]	250 nM	87%	421 nM	
CC(C)C[C@H](NC(=O)[C@@H](O)[C@H](N)Cc1ccccc1)C(=O)O [bestatin]				LTA4 hydrolase inhibitory activity (in words) (LTA4 hydrolase): exhibit LTA4 hydrolase inhibitory activity
O=C(O)C1CCN(CCOc2ccc(Cc3ccccc3)cc2)CC1 [Example 429]		80%	288 nM	
CCOC(=O)C1CCN(CCOc2ccc(Cc3ccccc3)s2)CC1 [Example 370]		96%	680 nM	
[O-][n+]1ccc2c(c1)ncn2CCOc1ccc(Cc2ccccc2)cc1 [Example 365]		72%		
C[C@H](CS)C(=O)N1CCC[C@H]1C(=O)O [captopril]				LTA4 hydrolase inhibitory activity (in words) (LTA4 hydrolase): exhibit LTA4 hydrolase inhibitory activity
c1ccc(Cc2ccc(OCCn3cccc4ncnc3-4)cc2)cc1 [Example 338A]	140 nM	22%		IC50 [2]: 690 nM
c1ccc(Cc2ccc(OCCn3cnc4cnccc43)cc2)cc1 [Example 340B]		64%	330 nM	
c1ccc(Cc2ccc3c(c2)CC(Cn2cnc4cnccc42)O3)cc1 (stereo not drawn) [Example 358B]		33%	640 nM	
CNC(=O)C1CCN(CCOc2ccc(Cc3ccccc3)cc2)CC1 [Example 420]	57 nM	93%	133 nM	
COC(=O)CCN(C)CCCOc1ccc(Cc2ccsc2)cc1 [Example 330]		95%	90 nM	
CC1CCCC(C)N1CCOc1ccc(Cc2ccccc2)cc1 (stereo not drawn) [Example 402]		58%		
CCOC(=O)CCNCCCCOc1ccc(Cc2ccccc2)cc1 [Example 272]	7 nM	97%	76 nM	
CCOC(=O)C1CCN(CCOc2ccc(Cc3ccccc3)cc2)CC1 [Example 245]		97%	147 nM	
